Experimental data reported in PubChem BioAssay (NCI).
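In this assay, cells in 96-well plates receive the compound at five concentrations for 48 hours. Endpoints are linearly interpolated between the surrounding concentrations. Here, GI50 denotes the concentration required for 50% inhibition of growth. TGI denotes the concentration required for complete inhibition of growth.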

Columns and labels:
Assay in all cases: DTP human tumour cell line panel, 48 h
ACHN renal = test system: ACHN renal
SNB-78 CNS = test system: SNB-78 CNS
DMS 114 small cell lung = test system: DMS 114 small cell lung
UACC-257 melanoma = test system: UACC-257 melanoma
DMS 273 small cell lung = test system: DMS 273 small cell lung
HCT-15 colon = test system: HCT-15 colon
NCI-H522 lung = test system: NCI-H522 lung
OVCAR-4 ovarian = test system: OVCAR-4 ovarian

SMILES	TGI (ACHN renal)	TGI (SNB-78 CNS)	TGI (DMS 114 small cell lung)	TGI (UACC-257 melanoma)	TGI (DMS 273 small cell lung)	TGI (HCT-15 colon)	TGI (NCI-H522 lung)	TGI (OVCAR-4 ovarian)	GI50 (DMS 114 small cell lung)	GI50 (UACC-257 melanoma)	GI50 (DMS 273 small cell lung)	GI50 (HCT-15 colon)	GI50 (NCI-H522 lung)	GI50 (OVCAR-4 ovarian)
CC(=O)Oc1c(C)n(CCCl)ccc1=O	> 100 µM	> 100 µM	> 100 µM	> 100 µM	> 100 µM	> 100 µM	> 100 µM	> 100 µM						
CC1=C(C(=O)Nc2ccccc2)C(c2ccc3c(c2)OCO3)C(C(=O)Nc2ccccc2)=C(C)N1	> 100 µM		> 100 µM	> 100 µM	86.5 µM	> 100 µM	73.3 µM	81.4 µM						
CCOC(=O)c1cccc(=O)c(C(=O)OCC)c1	> 100 µM	> 100 µM	> 100 µM	> 100 µM	> 100 µM	> 100 µM		> 100 µM						
Cc1cc(C)nc(NS(=O)(=O)c2ccc(Nc3c4ccccc4nc4c(C(=O)Nc5ccc(S(N)(=O)=O)cc5)cccc34)cc2)n1	> 100 µM	> 100 µM	> 100 µM	> 100 µM	> 100 µM	> 100 µM	> 100 µM	> 100 µM						
O=S(=O)(O)CS(=O)(=O)OCCCl	> 100 µM	> 100 µM	> 100 µM	> 100 µM	> 100 µM		> 100 µM	> 100 µM						
COc1ccc(/C=C2/CCCC/C2=N/O)cc1	> 100 µM	> 100 µM	> 100 µM	> 100 µM	> 100 µM	> 100 µM	> 100 µM	> 100 µM						
CC1=C(C(=O)Nc2ccc([N+](=O)[O-])cc2)C(c2ccco2)C(C(=O)Nc2ccc([N+](=O)[O-])cc2)=C(C)N1	53.4 µM	78.8 µM	43.2 µM	98.5 µM			64.3 µM	46.7 µM						
CCCCCCC(=O)C/C(CCC(=O)N(Cc1ccccc1)Cc1ccccc1)=N\Nc1ccc([N+](=O)[O-])cc1[N+](=O)[O-]	> 100 µM	> 100 µM	40.6 µM	> 100 µM	> 100 µM	> 100 µM	> 100 µM	> 100 µM						
O=C1C2=C(c3ccccc31)C(c1ccc(Cl)cc1)N1C(=O)CCSC1=N2 (stereo not given)	> 100 µM		> 100 µM	> 100 µM	> 100 µM	> 100 µM	> 100 µM	> 100 µM						
C/C(=N\NC(=S)Nc1ccc(C(=O)O)cc1)c1ccccn1	30.4 µM	> 100 µM	> 100 µM	62.1 µM	51.8 µM	> 100 µM		29.5 µM						
CC1=COC(=O)c2ccccc2N1	> 100 µM	> 100 µM	> 100 µM		> 100 µM	> 100 µM	> 100 µM	> 100 µM						
CCOP(=O)(OCC)C1C(=O)O[C@H]2CCCC[C@@H]12 (stereo not given in full)	> 100 µM	> 100 µM	> 100 µM	> 100 µM	> 100 µM	> 100 µM		> 100 µM						
NNC(=O)/C(=C/c1cccc([N+](=O)[O-])c1)NC(=O)c1ccccc1	> 100 µM	> 100 µM	> 100 µM	> 100 µM	> 100 µM	> 100 µM	> 100 µM	> 100 µM						
NC(N)=NS(=O)(=O)c1ccc(NC(=O)c2cccc3c(Nc4ccc(S(=O)(=O)N=C(N)N)cc4)c4ccc(Cl)cc4nc23)cc1	> 100 µM	> 100 µM	> 100 µM	> 100 µM	> 100 µM	> 100 µM	> 100 µM	> 100 µM						
C/C(=N\N(C)C)c1sc(-n2nc(-c3ccccc3)cc2-c2ccccc2)nc1C	> 100 µM	> 100 µM	> 100 µM	> 100 µM	> 100 µM	> 100 µM	> 100 µM	> 100 µM						
CCCCN(CCCC)C(=O)C(=O)CC(=O)c1ccc(Br)cc1	> 100 µM	> 100 µM	> 100 µM	> 100 µM	> 100 µM	> 100 µM	> 100 µM	> 100 µM						
COc1c(OC(C)=O)ccc(/C=C2\N=C(C)OC2=O)c1[N+](=O)[O-]	> 100 µM	> 100 µM		> 100 µM	> 100 µM	> 100 µM	> 100 µM	> 100 µM						
Cn1nc(-c2ccccc2NC(=O)C(F)(F)F)c(=O)n(C)c1=S	77.5 µM		29.5 µM		> 100 µM		49.2 µM	62.3 µM						
Cc1cc(Br)cc(C)c1NC(=O)C(=O)CC(=O)c1sc(-n2nc(-c3ccccc3)cc2-c2ccccc2)nc1C	> 100 µM	> 100 µM	> 100 µM	> 100 µM	> 100 µM	> 100 µM	> 100 µM	> 100 µM						
O=C1C2=C(c3ccccc31)C(c1cccc(Cl)c1)NC(=S)N2 (stereo not given)	> 100 µM		> 100 µM	> 100 µM	> 100 µM	> 100 µM	> 100 µM	> 100 µM						
COc1ccc(-c2oc3cc(O)c(OC)c(O)c3c(=O)c2OC2OC(CO)C(O)C(O)C2O)cc1 (stereo not given)	> 100 µM	> 100 µM	> 100 µM		> 100 µM	> 100 µM		> 100 µM						
COC1C=C(Nc2cccc(Cl)c2)C(=O)C1 (stereo not given)	> 100 µM	> 100 µM	> 100 µM	> 100 µM	> 100 µM		> 100 µM	> 100 µM						
C=C(c1ccccc1N)[C@@]1(O)C[C@H](/C(=C\C)CO)C[C@@H]1NCc1ccccc1	> 100 µM	79.7 µM	33.9 µM	32.3 µM	84.5 µM	> 100 µM	33.4 µM	> 100 µM						
CCOC(=O)C1C=C2O[C@@H]3OC4(CCCCC4)O[C@@H]3C2[C@H]2C(=O)C=CC(=O)[C@@]12C(=O)OC (stereo not given in full)	32.2 µM	19.3 µM	9.68 µM	30.8 µM	22.9 µM	28.8 µM	14.5 µM	23.3 µM						
CCOC(=O)/N=c1\ss/c(=N\C(=S)N(C)C)n1-c1ccccc1	> 100 µM	> 100 µM		> 100 µM	> 100 µM	> 100 µM			> 100 µM	> 100 µM	77.1 µM	> 100 µM	0.401 µM	> 100 µM
S=c1[nH]nc(COc2ccc(Cl)cc2)o1	> 100 µM	> 100 µM	> 100 µM	> 100 µM	> 100 µM	98.6 µM	> 100 µM	> 100 µM						
CC(C)=CC(=O)CC(=O)C(=O)Nc1ccc(C)c(C)c1	> 100 µM	> 100 µM		> 100 µM	> 100 µM	> 100 µM	> 100 µM							
